Data on 5 compounds can be found in patent US20200188469A1, “COMPOUNDS AND METHODS FOR INHIBITING CDK5 ALLEVIATE CARDIAC PHENOTYPES IN TIMOTHY SYNDROME AND RELATED CONDITIONS” (priority 2017, published 2020).

Entries after “also recorded” stand apart in the source; their conditions may differ.

In data set [1] the test system is Timothy syndrome cardiomyocytes. Nature of the data set: Contraction assay with Matlab-based analysis and calcium imaging (Roscovitine analog and CDK inhibitor tests). The format is cell-based, human. As to conditions: two rounds: cardiomyocyte clusters 24 hours, intact monolayer 2 hours after treatment; 5 μM, (R)-CR8 1 or 2 μM. How it is done:
Two rounds of chemical tests were conducted to test the compounds. The first round of chemical test was conducted using Timothy syndrome cardiomyocyte clusters isolated from the monolayer cardiomyocytes to screen the compounds efficiently and to identify the positive compounds that could increase the spontaneous beating rate and decrease the contraction irregularity of the Timothy syndrome cardiomyocyte clusters (FIG. 1C).
The working solution of each compound was made by diluting the stock solution in our cardiomyocyte culture media to a final concentration of 5 μM except for (R)-CR8, which was diluted to a final concentration of 1 or 2 μM. The contraction analysis was performed as reported previously (Yazawa et al., 2011). The movies were taken before the treatment, and 24 hours after the treatment of each compound from the Timothy syndrome cardiomyocyte clusters isolated from the monolayer cardiomyocytes for the first round of test. The movies were taken before the treatment, and 2 hours after the treatment of each positive compound on the intact monolayer Timothy syndrome cardiomyocytes for the second round of test. The contraction rate and the irregularity of each sample before and after treatment were compared using paired Student t-test.

A further data set deals with T1, CDK5/p35 (Homo sapiens, UniProt Q00535).
T1 construct: purchased Promega V3271
Nature of the data set: In vitro kinase assay (ADP-Glo luminescence). The format is biochemical. As to conditions: wild-type II-III loop or C-term of Cav1.2 as substrates. From the text:
To determine whether CDK5 phosphorylates Cav1.2, an in vitro kinase assay was designed. The wild-type II-III loop or the C-term of Cav1.2 was used as the substrates in this assay. Mutant II-III loop and mutant C-term constructs were generated with substitutions of serine/threonine to glycine or alanine in all CDK5 consensus sequences as negative controls. The phosphorylation of the substrates by CDK5 consumes ATP and produces ADP, which is then converted into luminescence by detection reagents in the assay (FIG. 3D). The luminescence signal was reduced when the CDK5 inhibitor, PHA-793887 was added to the reactions using wild-type II-III loop or C-term as the substrates. […]
To prepare the substrates, the HEK 293T cells were transfected with the plasmid containing either the FLAG-tagged wild-type II-III loop or mutant II-III loop or wild-type C-terminus or mutant C-terminus using Lipofectamine 2000 (Thermo Fisher Scientific) following the manufacturer's protocol 24 hours after plating. […] A series of samples for a standard curve were prepared based on the manufacturer's instructions to determine the ATP-ADP conversion from the luminescence signals in every round of experiment. […] 20 ul of the samples from each tube was then transferred into a 96 well microplate and the luminescence was measured with the GloMax® 96 Microplate Luminometer (Promega).

A further data set concerns Cav1.2 channels. In words: Voltage-clamp recordings of Ba2+ currents (voltage-dependent inactivation of Cav1.2). The format is cell-based, human. As to conditions: TS cardiomyocytes with CDK5 DN expression; 5 μM, 3 min. How it is done: The Timothy syndrome and control iPSCs were differentiated into cardiomyocytes following a protocol reported previously (Song et al., 2015) and infected with the lentiviruses at day 19-21 or day 25-27 after cardiac differentiation. The cardiomyocytes were dissociated into single cells for whole-cell patch-clamp recordings at day 31. Whole-cell patch-clamp recordings of iPSC-derived cardiomyocytes were conducted using a MultiClap 700B patch-clamp amplifier (Molecular Devices) and an inverted microscope equipped with differential interface optics (Nikon, Ti-U). The glass pipettes were prepared using borosilicate glass (Sutter Instrument, BF150-110-10) using a micropipette puller (Sutter Instrument, Model P-97). Voltage-clamp measurements were conducted using an extracellular solution consisting of 5 mM BaCl2, 160 mM TEA and 10 mM HEPES (pH7.4 at 25° C.) and a pipette solution of 125 mM CsCl, 0.1 mM CaCl2, 10 mM EGTA, 1 mM MgCl2, 4 mM MgATP and 10 mM HEPES (pH 7.4 with CsOH at 25° C.). Two pulse protocols were used. One protocol was that cells were held at −90 mV and then depolarized to −10 mV for 400 ms at a rate of 0.1 Hz for the Ba^2+ current recordings. […] Recorded action potentials were analyzed using Clampfit 10.4 (Axon Instruments).

For data set [2], the system named is TS cardiomyocytes derived from hiPSCs. As to conditions: high dose; cited from earlier work.
The test system of data set [3] is Cav1.2 with Timothy syndrome mutation. As to conditions: heterologous over-expression system; cited from earlier work.
The conditions of data set [4]: withdrawn from US market in 2000; cited from earlier work.

T1 sequence (Q00535 whole entry): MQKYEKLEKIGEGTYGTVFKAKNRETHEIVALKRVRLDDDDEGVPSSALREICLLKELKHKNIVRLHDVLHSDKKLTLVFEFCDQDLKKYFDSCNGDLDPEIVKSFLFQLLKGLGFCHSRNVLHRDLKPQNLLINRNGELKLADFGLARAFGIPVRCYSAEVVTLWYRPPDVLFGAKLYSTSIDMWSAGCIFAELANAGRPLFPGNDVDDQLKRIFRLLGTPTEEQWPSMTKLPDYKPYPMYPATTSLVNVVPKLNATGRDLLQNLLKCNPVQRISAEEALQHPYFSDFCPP
T1 sequence (Q15078 whole entry partner): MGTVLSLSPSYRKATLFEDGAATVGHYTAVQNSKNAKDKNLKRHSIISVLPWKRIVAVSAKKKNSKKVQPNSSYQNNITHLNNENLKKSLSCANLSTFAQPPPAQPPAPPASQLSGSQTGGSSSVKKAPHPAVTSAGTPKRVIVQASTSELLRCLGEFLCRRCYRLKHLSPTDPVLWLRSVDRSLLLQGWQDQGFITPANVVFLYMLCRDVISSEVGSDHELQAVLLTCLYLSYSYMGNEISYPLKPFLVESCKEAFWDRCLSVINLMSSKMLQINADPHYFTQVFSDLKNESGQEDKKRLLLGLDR

`CC[C@H](CO)Nc1nc(NCc2ccc(-c3ccccn3)cc2)c2ncn(C(C)C)c2n1` [CR8]: in data set [1], the “effects on Timothy syndrome cardiomyocytes (spontaneous beating rate, contraction irregularity)” value (from here on “effects”) is given as “beneficial effects”. On to `COc1ccc(CNc2nc(NCc3ccc(OC)cc3)c3ncn(C4CCCCC4)c3n2)cc1` [Myoseverin B], for which, in data set [1], the “effects” value is listed as “beneficial effects”. For `CC(C)CC(=O)Nc1[nH]nc2c1CN(C(=O)C1CCN(C)CC1)C2(C)C` [PHA-793887], the “luminescence signal (phosphorylation of substrate by CDK5)” value at CDK5/p35 is reported as “reduced; also recorded: blocked the phosphorylation”. In data set [1], the “effects” value is on record as “beneficial effects”. Turning to `CC[C@H](CO)Nc1nc(NCc2ccccc2)c2ncn(C(C)C)c2n1` [Roscovitine], in the data set on Cav1.2 channels, the “voltage-dependent inactivation of Cav1.2” value is “did not further enhance; also recorded: did not significantly enhance”. In data set [2], the “cardiac phenotypes of TS cardiomyocytes” value is “rescue the cardiac phenotypes”. Also, in data set [3], the “voltage-dependent inactivation of Cav1.2 with Timothy syndrome mutation” value is reported as “enhance the voltage-dependent inactivation”.

Take `COc1cc(N)c(Cl)cc1C(=O)NC1CCN(CCCOc2ccc(F)cc2)CC1OC` (centres unmarked) [cisapride]: in data set [4], the side effect result is “QT prolongation”.
